Reference: EP4603105A1, “PHARMACEUTICAL COMPOSITION CONTAINING CYCLIC COMPOUND HAVING SELECTIVE KRAS INHIBITORY EFFECT AGAINST HRAS AND NRAS” (CHUGAI SEIYAKU KABUSHIKI KAISHA, priority 2022, dated 2024)
Where two headings read alike, the source gives them in different places.

Assays:
[1] = target: GDP-bound KRAS wild-type protein (Homo sapiens, UniProt P01116); assay: Binding to KRAS by surface plasmon resonance (SPR), dissociation constant KD
Method in brief: (§1)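 SPR, 30°C: Avi-biotin RAS·GDP captured via Biotin CAPture (~100–300 RU); running buffer HBS pH 7.4, 1 mM DTT, 10 mM MgCl2, 0.01% Tween 20, 10 µM GDP, 4% DMSO. Single-cycle kinetics, 100 µL/min, 75 s injections; 1:1 model → KD.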

[2] = target: GDP-bound NRAS wild-type protein (Homo sapiens, UniProt P01111); assay: Binding to NRAS by surface plasmon resonance (SPR), KD and KD ratio to KRAS
GDP-bound NRAS wild-type protein, sequence (P01111 whole entry): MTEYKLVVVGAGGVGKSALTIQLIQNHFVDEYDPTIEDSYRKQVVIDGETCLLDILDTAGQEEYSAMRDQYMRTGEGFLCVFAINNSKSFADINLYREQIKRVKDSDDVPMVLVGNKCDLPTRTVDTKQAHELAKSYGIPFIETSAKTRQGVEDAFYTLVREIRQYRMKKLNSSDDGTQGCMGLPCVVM
Method in brief: as §1

HRAS wild-type protein = HRAS wild-type protein (Homo sapiens, UniProt P01112); assay: Binding to HRAS by surface plasmon resonance (SPR), KD and KD ratio to KRAS
HRAS wild-type protein, sequence (P01112 whole entry): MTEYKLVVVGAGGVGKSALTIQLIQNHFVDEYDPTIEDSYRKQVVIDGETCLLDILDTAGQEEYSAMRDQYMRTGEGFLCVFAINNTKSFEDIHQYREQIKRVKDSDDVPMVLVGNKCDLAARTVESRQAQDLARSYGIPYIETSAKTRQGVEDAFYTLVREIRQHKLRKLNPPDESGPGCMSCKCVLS
Method in brief: as §1

[3] = test system: human lung cancer strain NCI-H441; assay: NCI-H441 cell proliferation inhibitory activity (CellTiter-Glo, 4 days); format: cell-based; conditions: read-out: NCl-H441 IC50
Method in brief: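 Proliferation was scored by […] measured after the reagent was added to cultures kept at 37°C in 5% carbon dioxide.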

[4] = ratio of KD for GDP-bound NRAS wild-type protein to KD for KRAS
[5] = ratio of KD for HRAS wild-type protein to KD for KRAS
[6] = Single Cycle Kinetics, 1:1 binding model
[7] = ratio of KD with respect to GDP-bound NRAS wild-type protein to KD with respect to KRAS
[8] = ratio of KD with respect to HRAS wild-type protein to KD with respect to KRAS
[9] = 50% proliferation inhibitory concentration, four days

GDP-bound KRAS wild-type protein, sequence (P01116 1-188 isoform P01116-2): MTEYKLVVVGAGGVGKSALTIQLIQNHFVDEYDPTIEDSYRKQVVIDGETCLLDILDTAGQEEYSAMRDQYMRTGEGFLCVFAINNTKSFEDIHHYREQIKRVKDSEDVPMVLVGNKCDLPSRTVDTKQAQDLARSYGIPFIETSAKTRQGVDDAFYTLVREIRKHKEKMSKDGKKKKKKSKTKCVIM

Row | Structure (SMILES) | Kd ([1]; 1:1 binding model) | IC50 ([3]; NCI-H441 cells, 4 days) | Kd ([1]; Single Cycle Kinetics) | Kd [1, 6] | IC50 [3, 9] | NRAS /KRAS [2, 4] | HRAS /KRAS (HRAS wild-type protein; [5]) | NRAS /KRAS [2, 7] | HRAS /KRAS (HRAS wild-type protein; [8])
1 | CCC[C@H]1C(=O)N[C@@H]([C@@H](C)CC)C(=O)N(C)CC(=O)N(C)[C@H]2C/C=C\CCN(C2=O)[C@@H](Cc2ccc(C)cc2)C(=O)N(C)CC(=O)N[C@@H](CCc2ccc(Cl)c(Cl)c2)C(=O)N2C[C@H](OC(C)C)C[C@H]2C(=O)NC2(CC(C)(C)C2)C(=O)N(C)[C@@H](C(CC)CC)C(=O)N(C)[C@H](C(=O)N(C)C)CC(=O)N1C [PP2537] | 0.74 nM | 75.1 nM | – | – | – | AA (a compound having 20 or more is denoted as AA) | A (a compound having 10 or more and less than 20 is denoted as A) | – | –
2 | CCO[C@@H]1C[C@H]2C(=O)NC3(CCCC3)C(=O)N(C)[C@@H](C3CCCC3)C(=O)N(C)[C@H](C(=O)N(C)C)CC(=O)N(C)[C@@H](CC)C(=O)N[C@@H]([C@@H](C)CC)C(=O)N(C)CC(=O)N(C)[C@H]3CC[C@@H](C)CN(C3=O)[C@@H](Cc3ccc(C(F)(F)F)cc3)C(=O)N(C)CC(=O)N[C@@H](CCc3cc(F)c(C(F)(F)F)c(F)c3)C(=O)N2C1 [PP1370] | – | – | – | 0.057 nM | 2.3 nM | – | – | C (A compound having a KD ratio of 0.1 or more and less than 3 is denoted as C) | C (A compound having a KD ratio of 0.1 or more and less than 3 is denoted as C)
3 | CCCCCC[C@H]1C(=O)N[C@@H]([C@@H](C)CC)C(=O)N(C)CC(=O)N(C)[C@H]2C/C=C\CCN(C2=O)[C@@H](Cc2ccc(C(F)(F)F)cc2)C(=O)N(C)CC(=O)N[C@@H](CCc2ccc(Cl)c(Cl)c2)C(=O)N2C[C@H](OCC)C[C@H]2C(=O)NC2(CCC2)C(=O)N(C)[C@@H](C(CC)CC)C(=O)N(C)[C@H](C(=O)N(C)C)CC(=O)N1C [PP1218] | – | – | – | 0.88 nM | 67.9 nM | – | – | AA (a compound having 20 or more is denoted as AA) | A (a compound having 10 or more and less than 20 is denoted as A)
4 | CCO[C@@H]1C[C@H]2C(=O)NC3(CCC3)C(=O)N(C)[C@@H](C3CCCC3)C(=O)N(C)[C@H](C(=O)N(C)C)CC(=O)N(C)[C@@H](COCC(F)(F)F)C(=O)N[C@@H]([C@@H](C)CC)C(=O)N(C)CC(=O)N(C)[C@H]3C/C=C\CCN(C3=O)[C@@H](Cc3ccc(C(F)(F)F)cc3)C(=O)N(C)CC(=O)N[C@@H](CCc3cc(F)c(C(F)(F)F)c(F)c3)C(=O)N2C1 [PP1267] | – | – | – | 0.046 nM | 10.8 nM | – | – | A (a compound having 10 or more and less than 20 is denoted as A) | A (a compound having 10 or more and less than 20 is denoted as A)
5 | CCC[C@H]1C(=O)N[C@@H]([C@@H](C)CC)C(=O)N2CCCC[C@H]2C(=O)N(C)[C@H]2C/C=C\CCN(C2=O)[C@@H](Cc2ccc(C)cc2)C(=O)N(C)CC(=O)N[C@@H](CCc2cc(F)c(C(F)(F)F)c(F)c2)C(=O)N2C[C@H](OCC)C[C@H]2C(=O)N(C)C2(CCC2)C(=O)N(C)[C@@H](C2CCCC2)C(=O)N(C)[C@H](C(=O)N(C)C)CC(=O)N1C [PP3274] | – | 25.1 nM | 0.81 nM | – | – | A (a compound having 10 or more and less than 20 is denoted as A) | B (a compound having 3 or more and less than 10 is denoted as B) | – | –
6 | CCC[C@H]1C(=O)N[C@@H](CC(C)C)C(=O)N(CCOC)CC(=O)N(C)[C@H]2C/C=C\CCN(C2=O)[C@@H](Cc2ccc(C)cc2)C(=O)N(C)CC(=O)N[C@@H](CCc2cc(F)c(C(F)(F)F)c(F)c2)C(=O)N2C[C@H](OCC)C[C@H]2C(=O)NC2(CCC2)C(=O)N(C)[C@@H](C2CCCC2)C(=O)N(C)[C@H](C(=O)N(C)C)CC(=O)N1C [PP2541] | 4.9 nM | 374 nM | – | – | – | A (a compound having 10 or more and less than 20 is denoted as A) | B (a compound having 3 or more and less than 10 is denoted as B) | – | –
7 | CCO[C@@H]1C[C@H]2C(=O)NC3(CCC3)C(=O)N(C)[C@@H](C3CCCC3)C(=O)N(C)[C@H](C(=O)N3CCOCC3)CC(=O)N(C)[C@@H](CC)C(=O)N[C@@H]([C@@H](C)CC)C(=O)N(C)CC(=O)N(C)[C@H]3C[C@@H](C)[C@@H](C)CN(C3=O)[C@@H](Cc3ccc(C(F)(F)F)cc3)C(=O)N(C)CC(=O)N[C@@H](CCc3ccc(C(F)(F)F)c(Cl)c3)C(=O)N2C1 [PP1360] | – | – | – | 0.055 nM | 4.9 nM | – | – | A (a compound having 10 or more and less than 20 is denoted as A) | B (a compound having 3 or more and less than 10 is denoted as B)
8 | CCC[C@H]1C(=O)N[C@@H]([C@@H](C)CC)C(=O)N(C)CC(=O)N(C)[C@H]2C/C=C\CCN(C2=O)[C@@H](Cc2ccc(C(F)(F)F)cc2)C(=O)N(C)CC(=O)N[C@@H](CCc2ccc(C(F)(F)F)c(OC)c2)C(=O)N2CC[C@H](OC)[C@H]2C(=O)N(C)C2(CCC2)C(=O)N(C)[C@@H](C2CCCC2)C(=O)N(C)[C@H](C(=O)N(C)C)CC(=O)N1C [PP3243] | – | 5.3 nM | 0.066 nM | – | – | A (a compound having 10 or more and less than 20 is denoted as A) | A (a compound having 10 or more and less than 20 is denoted as A) | – | –
9 | CCC[C@H]1C(=O)N[C@@H]([C@@H](C)CC)C(=O)N2CCC[C@H]2C(=O)N(C)[C@H]2C/C=C\CCN(C2=O)[C@@H](Cc2ccc(C)cc2)C(=O)N(C)CC(=O)N[C@@H](CCc2ccc(Cl)c(Cl)c2)C(=O)N2C[C@H](OC(C)C)C[C@H]2C(=O)NC2(CC(C)(C)C2)C(=O)N(C)[C@@H](C(CC)CC)C(=O)N(C)[C@H](C(=O)N(C)C)CC(=O)N1C [PP2641] | 2 nM | 98.6 nM | – | – | – | AA (a compound having 20 or more is denoted as AA) | A (a compound having 10 or more and less than 20 is denoted as A) | – | –

Further lines, with some results ahead:

Row | Kd ([1]; 1:1 binding model) | IC50 ([3]; NCI-H441 cells, 4 days) | Kd ([1]; Single Cycle Kinetics) | Kd [1, 6] | IC50 [3, 9] | Structure (SMILES) | NRAS /KRAS [2, 4] | HRAS /KRAS (HRAS wild-type protein; [5]) | NRAS /KRAS [2, 7] | HRAS /KRAS (HRAS wild-type protein; [8])
10 | – | 19.4 nM | 0.34 nM | – | – | CCCC[C@@H]1NC(=O)C[C@@H](C(=O)N(C)C)N(C)C(=O)[C@H](C2CCCC2)N(C)C(=O)C2(CC(C)(C)C2)NC(=O)[C@@H]2C[C@@H](OCC)CN2C(=O)[C@H](CCc2ccc(C(F)(F)F)c(Cl)c2)NC(=O)CN(C)C(=O)[C@H](Cc2ccc(C(F)(F)F)cc2)N2CC/C=C\C[C@@H](C2=O)N(C)C(=O)CN(C)C(=O)[C@H]([C@@H](C)CC)NC1=O [PP3453] | A (a compound having 10 or more and less than 20 is denoted as A) | A (a compound having 10 or more and less than 20 is denoted as A) | – | –
11 | – | 8.5 nM | 0.18 nM | – | – | CCCC[C@H]1C(=O)N[C@@H]([C@@H](C)CC)C(=O)N(C)CC(=O)N(C)[C@H]2C/C=C\CCN(C2=O)[C@@H](Cc2ccc(C(F)(F)F)cc2)C(=O)N(C)CC(=O)N[C@@H](CCc2ccc(C(F)(F)F)c(OC)c2)C(=O)N2C[C@H](OCC)C[C@H]2C(=O)OC2(CCC2)C(=O)N(C)[C@@H](C2CCCC2)C(=O)N(C)[C@H](C(=O)N(C)C)CC(=O)N1C [PP3367] | A (a compound having 10 or more and less than 20 is denoted as A) | A (a compound having 10 or more and less than 20 is denoted as A) | – | –
12 | – | 6.9 nM | 0.24 nM | – | – | CCC[C@H]1C(=O)N[C@@H]([C@@H](C)CC)C(=O)N2CCC[C@H]2C(=O)N(C)[C@H]2C/C(F)=C\CCN(C2=O)[C@@H](Cc2ccc(C)cc2)C(=O)N(C)CC(=O)N[C@@H](CCc2ccc(C(F)(F)F)c(OC)c2)C(=O)N2C[C@H](OCC)C[C@H]2C(=O)N(C)C2(CCC2)C(=O)N(C)[C@@H](C2CCCC2)C(=O)N(C)[C@H](C(=O)N(C)C)CC(=O)N1C [PP3524] | B (a compound having 3 or more and less than 10 is denoted as B) | B (a compound having 3 or more and less than 10 is denoted as B) | – | –
13 | – | 16.4 nM | 0.2 nM | – | – | CCCC[C@@H]1NC(=O)C[C@@H](C(=O)N(C)C)N(C)C(=O)[C@H](C2CCCC2)N(C)C(=O)C2(CC(C)(C)C2)NC(=O)[C@@H]2C[C@@H](OCC)CN2C(=O)[C@H](CCc2cc(F)c(C(F)(F)F)c(F)c2)NC(=O)CN(C)C(=O)[C@H](Cc2ccc(C(F)(F)F)cc2)N2CC/C=C\C[C@@H](C2=O)N(C)C(=O)CN(C)C(=O)[C@H]([C@@H](C)CC)NC1=O [PP3456] | A (a compound having 10 or more and less than 20 is denoted as A) | A (a compound having 10 or more and less than 20 is denoted as A) | – | –
14 | – | 32.1 nM | 1 nM | – | – | C=CCN1CC(=O)N(C)[C@H]2C/C=C\CCN(C2=O)[C@@H](Cc2ccc(C(F)F)cc2)C(=O)N(C)CC(=O)N[C@@H](CCc2ccc(C(F)(F)F)cc2Cl)C(=O)N2C[C@H](OC(C)C)C[C@H]2C(=O)N(C)C2(CCC2)C(=O)N(C)[C@@H](C(CC)CC)C(=O)N(C)[C@H](C(=O)N(C)C)CC(=O)N(C)[C@@H](CC2CC2)C(=O)N[C@@H]([C@@H](C)OCCC)C1=O [PP3493] | AA (a compound having 20 or more is denoted as AA) | A (a compound having 10 or more and less than 20 is denoted as A) | – | –
15 | – | 55.6 nM | 1.8 nM | – | – | CCO[C@@H]1C[C@H]2C(=O)NC3(CCCC3)C(=O)N(C)[C@@H](C3CCC3)C(=O)N(C)[C@H](C(=O)N(C)C)CC(=O)N(C)[C@@H](CC(C)C)C(=O)N[C@@H]([C@@H](C)CC)C(=O)N(C)CC(=O)N(C)[C@H]3C/C(F)=C\CCN(C3=O)[C@@H](Cc3ccc(C)cc3)C(=O)N(C)CC(=O)N[C@@H](CCc3cc(F)c(C(F)(F)F)c(F)c3)C(=O)N2C1 [PP3517] | B (a compound having 3 or more and less than 10 is denoted as B) | B (a compound having 3 or more and less than 10 is denoted as B) | – | –
